Source: US12564601B2, “Methods for treating hepatitis B infection” (priority 2017, dated 2026)
pEC50: −log10 of the molar value. Where two headings read alike, the source gives them in different places.

Experiments:
HBV = experiment: Entecavir combination study in HBV-expressing mouse (HDI model); type: in vivo, mice; conditions: for circulating (plasma) HBsAg / hepatic viral RNAs (liver HBV mRNA and pgRNA): HDI model; for circulating (plasma) HBsAg: ELISA; for hepatic viral RNAs (liver HBV mRNA and pgRNA): qPCR
Description: The RNAi oligonucletoides targeting the S antigen impact both the viral polymerase and HBsAg protein. In this study, the combinational effects of HBV(s)-219P2 as a monotherapy and combinational treatment with entecavir was explored in an HBV-expressing mouse (HDI model) for antiviral activity.
Mice were administered daily oral dosing of 500 ng/kg Entecavir (ETV) for 14 days. A single subcutaneous administration of HBV(s)-219P2 took place. Circulating viral load (HBV DNA) was measured by qPCR (FIG. 15A), plasma HBsAg level was measured by ELISA (FIG. 15B), and liver HBV mRNA and pgRNA levels were measured by qPCR.

HBsAg = experiment: Plasma HBsAg suppression, S- versus X-targeting oligonucleotides, HDI model; type: in vivo, mice; conditions: single saturating 9 mg/kg SC dose, n=3
Description: In this study, HBV-expressing mice (HDI model) were administered HBV(s)-219P2, GalXC-HBVX (same sequence as the GalXC-HBVX used in FIGS. 12A and 12B), or a combination of the two RNAi oligonucleotides and plasma HBsAg level two weeks or nine weeks post dose were monitored.

HBsAg mRNA = experiment: Time course of HBsAg mRNA expression in HDI model of HBV; type: in vivo, mouse; conditions: three once-weekly doses of 3 mg/kg
Description: The durational effects of the HBV(s)-219P1 oligonucleotide were examined in two different mouse models of HBV—an HDI model, which is cccDNA-dependent, and an AAV model, which is cccDNA independent. A time course (12 weeks) analysis of HBsAg mRNA expression was performed in the context of a treatment involving three once-weekly doses of 3 mg/kg with the HBV(s)-219P1 oligonucleotide targeting HBsAg mRNA compared with vehicle control and an RNAi oligonucleotide targeting HBxAg mRNA in the HDI model of HBV (FIG. 12A).

HBsAg viral transcript = experiment: HBsAg levels in HDI-mice after subcutaneous HBV-254; type: in vivo
Description: Preclinical potency was further evaluated in mice following a QW×3 dosing regimen in which HBV-254 was subcutaneously administered at 3 mg/kg (FIG. 3). The administration points are indicated by arrows in the figure. HBsAg levels were monitored in both oligonucleotide treated and untreated control mice for a period spanning 147 days.

[1] = tested on: HBV Genotype A S ORF reporter sequence; experiment: psiCHECK2 dual-luciferase reporter mismatch assay in HeLa cells; type: cell-based
Source text: A psiCHECK-2 dual-luciferase reporter system was utilized to evaluate the effects of a mismatch at a selected position in each of HBV-217, HBV-219, HBV-254, HBV-255, and HBV-258. The psiCHECK vector enables monitoring of changes in expression of a target gene fused to a reporter gene, where active RNAi degrades the fusion construct to produce a corresponding decrease in reporter signal. The diagram in FIG. 6 generically depicts the vector utilized in these assays. The parent partial reporter sequence contained 120 base-pair fragments from Genotype A (GenBank: AM282986.1) around target sites of interest in the S ORE. […]
The psiCHECK2 reporter assays with each oligonucleotide were conducted over a three-day period using a 6-point, 5-fold serial dilution starting at 1 nM transfected in HeLa cells. […] The cells were then incubated at 37° C. in a CO2 incubator until the cells were ready to harvest and assay for the target gene. On day 3, 100 μL of Dual-Glo Reagent was added to each well, mixed and incubated for 10 minutes before reading the luminescence. A further 100 μL of Dual-Glo Stop & Glo was added to each well, mixed and incubated for 10 minutes before reading the luminescence. […] The EC50s values determined for each oligonucleotide are shown in Table 3 with additional specifications.

In the case of `C=C1[C@H](CO)[C@@H](O)C[C@@H]1n1cnc2c(=O)[nH]c(N)nc21` [entecavir, Entecavir], the “mean decrease in HBV DNA in plasma relative to PBS” value (HBV; 500 ng/kg PO daily for 14 days, n=6) was ~1.6 log, the “circulating (plasma) HBsAg” value (HBV) was “No significant decrease” and the “circulating (plasma) HBsAg” value (HBV; listed as ETV) was “no efficacy”. The “hepatic viral RNAs (liver HBV mRNA and pgRNA)” value (HBV) was “No significant decrease” and the “hepatic viral RNAs (liver HBV mRNA and pgRNA)” value (HBV; listed as ETV) was “no efficacy”.

“GalXC-HBVX: RNAi oligonucleotide targeting HBxAg mRNA, sense strand SEQ ID NO: 39, antisense strand SEQ ID NO: 40 (sense UGCACUUCGCGUCACCUCUAGCAGCCGAAAGGCUGC; antisense UAGAGGUGACGCGAAGUGCAGG; GalNAc conjugate (GalXC), modification pattern not given here)” was tested, and the “plasma HBsAg suppression 9 weeks post dose / duration” value (HBsAg) was “significant recovery of HBsAg”, the duration of activity (HBsAg mRNA) was “shorter duration” and the “reduction of HBsAg mRNA expression” value (HBsAg mRNA; 12-week time course) was ~3.0 log.

For “HBV-254: HBsAg-targeting duplex oligonucleotide, sense strand SEQ ID NO: 23, antisense strand SEQ ID NO: 24 (sense GUGGUGGACUUCUCUCAAUAGCAGCCGAAAGGCUGC; antisense UAUUGAGAGAAGUCCACCACGG; listed as RNA, chemistry not given here)”, the “HBsAg levels relative to control” value (HBsAg viral transcript; QW×3, 3 mg/kg subcutaneous, monitored 147 days (FIG. 3)) was “Diminished HBsAg levels persisted in treated mice throughout the entirety of the study”, the HBsAg levels (HBsAg viral transcript; single dose evaluation, subcutaneous, HDI-mice (FIG. 2)) was “systematically reduced HBsAg levels in mice with increasing dosage” and the pEC50 ([1]; mismatch duplex, single mismatch to reporter at stated guide position, read-out: MM EC50s) was 10.02. It also gave a pEC50 ([1]; parent duplex, 100% homology to reporter, read-out: Parent EC50s) of 10.43.
